Results published in article PMC12884720, “Gabpα‐Pparγ Complex Determines Glycolytic Capacity and Lactic Acid Homeostasis in Brown Fat” (Advanced Science, 2025).
Residues, ends and D or L forms follow the SMILES beside them. *: point of attachment. FITC = O=C1OC2(c3ccc(O)cc3Oc3cc(O)ccc32)c2ccc(NC(=S)*)cc21

System: BAT from wild‐type mice
Test: Gene expression (mRNA, protein) in BAT of treated mice
Format: in vivo, wild‐type C57BL/6J mice
Method: Reverse transcription of cDNA was completed via the use of 1 µg of RNA with HiScript II Q RT SuperMix for real‐time quantitative PCR (qPCR) (Vazyme Biotech, Nanjing, China, Cat# R222) according to the provided protocols. qPCR was performed with a real‐time PCR system on a QuantStudio1 (Applied Biosystems) using Taq Pro Universal SYBR qPCR Master Mix (Vazyme Biotech., Nanjing, China, Cat# Q712‐02). Relative transcript levels were calculated via the comparative C T method; 36b4 was used as the internal control for cells, whereas Hprt was used as the internal control for tissues. The primer sequences are listed in Table S1 (Supporting Information). The mRNAs from the BAT of control and Gabpα ^Ucp1 KO mice were extracted and subjected to commercial RNA‐seq (BGI Genomics Co., Ltd.) for further DEG and KEGG pathway enrichment analysis. In detail, RNA quality was examined with Fragment (Agilent). High‐quality RNA (RIN > 8.0) was used to library construction. RNA‐seq was performed at BGI Genomics (China) using the Illumina NovaSeq 6000 platform. Clean reads were aligned to the mouse reference genome (GRCm39) using Bowtie2, and transcript quantification was performed with RSEM. […] The RNA‐seq data generated in this study have been deposited in the National Center for Biotechnology Information Sequence Read Archive database under accession code PRJNA1358056.
Cells and tissues were lysed in RIPA lysis buffer (Beyotime, Shanghai, China, Cat# P0013B) containing a protease inhibitor cocktail (MedChem Express, NJ, USA, Cat# HY‐K0010) according to the manufacturer's protocol. Equal amounts of protein were separated on SDS‒PAGE gels and transferred to PVDF membranes (Millipore). The PVDF membranes were blocked in 5% skim milk for 1 h at room temperature and then incubated with primary antibody overnight at 4 °C. The membranes were washed three times with TBST and then incubated with HRP‐conjugated secondary antibodies for 1 h at room temperature. After washing three times, the Western blots were imaged via an enhanced chemiluminescence system.

For `CC[C@H](C)[C@H](NC(=O)[C@H](CCCNC(=N)N)NC(=O)[C@H](CS)NC(=O)[C@H](CC(N)=O)NC(=O)[C@H](CC(C)C)NC(=O)[C@H](CC(=O)O)NC(=O)[C@H](CS)NC(=O)[C@H](CCCNC(=N)N)NC(=O)[C@H](CC(=O)O)NC(=O)[C@H](Cc1ccc(O)cc1)NC(=O)[C@@H](NC(=O)[C@H](CC(C)C)NC(=O)[C@H](CCCCN)NC(=O)[C@H](CC(C)C)NC(=O)[C@H](CCCNC(=N)N)NC(=O)[C@@H](NC(=O)[C@@H](NC(=O)[C@H](CCCNC(=N)N)NC(=O)[C@H](CCCNC(=N)N)NC(=O)[C@H](CCCNC(=N)N)NC(=O)[C@H](CCCNC(=N)N)NC(=O)[C@H](CCCNC(=N)N)NC(=O)[C@H](CCC(N)=O)NC(=O)[C@H](CCCNC(=N)N)NC(=O)[C@H](CCCNC(=N)N)NC(=O)[C@H](CCCCN)NC(=O)[C@H](CCCCN)NC(=O)[C@H](CCCNC(=N)N)NC(=O)CNC(=O)[C@H](Cc1ccc(O)cc1)NC(=S)Nc1ccc2c(c1)C(=O)OC21c2ccc(O)cc2Oc2cc(O)ccc21)[C@@H](C)O)[C@@H](C)CC)[C@@H](C)CC)C(=O)N[C@@H](Cc1c[nH]cn1)C(=O)N[C@@H](CCCCN)C(=O)N[C@@H](CCCCN)C(=O)N[C@@H](CO)C(=O)N[C@@H](CCCNC(=N)N)C(=O)N[C@@H](CC(N)=O)C(=O)N[C@@H](CCCCN)C(=O)O` [GPCBi] ({FITC}-YGRKKRRQRRRRRTIRLKLIYDRCDLNCRIHKKSRNK-OH; N-terminus and C-terminus assumed), the “Ldh and Ucp1 expression in BAT” value (GPCBi 5.5 mg kg^−1 in BAT, 23 °C for 7 days then 10 °C for 2 days, mRNA n = 4 (Figure 5e,f)) was “effectively downregulated”, the “gene expressions of Eno1, Pkm2, and Ucp1 in BAT” value (GPCBi 5.5 mg kg^−1 orthotopically into BAT, 7 days, control n = 3, GPCBi n = 4 (Figure 4l,m)) was “decreased” and the “regulatory gene expression of the futile lipid cycle, BAT” value (GPCBi in BAT, 23 °C for 7 days to 10 °C for 2 days, control n = 4, GPCBi n = 3 (Figure S5a)) was “substantially impaired”.
